In ChEMBL document CHEMBL3992542, “Synthesis of cholesteryl doxorubicin and its anti-cancer activity” (Bioorg Med Chem Lett, 2017):
Active and inactive are the calls of the source. No cut-off for these calls is given here.

Legend:
MDA-MB-231 [1] = assay: Cytotoxicity against human MDA-MB-231 cells assessed as decrease in cell viability at 10 uM treated for 2 hrs measured after 48 hrs by MTT assay; format: functional, cell-based
A549 [2] = assay: Cytotoxicity against human A549 cells assessed as decrease in cell viability at 10 uM treated for 2 hrs measured after 48 hrs by MTT assay; format: functional, cell-based
MCF7 [3] = assay: Cytotoxicity against human MCF7 cells assessed as decrease in cell viability at 5 uM treated for 2 hrs measured after 48 hrs by MTT assay; format: functional, cell-based
HeLa [4] = assay: Cytotoxicity against human HeLa cells assessed as decrease in cell viability at 5 uM treated for 2 hrs measured after 48 hrs by MTT assay; format: functional, cell-based
MDA-MB-231 [5] = assay: Cytotoxicity against human MDA-MB-231 cells assessed as decrease in cell viability treated for 2 hrs measured after 48 hrs by MTT assay; format: functional, cell-based
A549 [6] = assay: Cytotoxicity against human A549 cells assessed as decrease in cell viability treated for 2 hrs measured after 48 hrs by MTT assay; format: functional, cell-based
[7] = Drug uptake in human HeLa cells at 5 uM after 24 hrs by flow cytometric analysis; format: ADME, cell-based
[8] = Drug uptake in human MDA-MB-231 cells at 5 uM after 24 hrs by flow cytometric analysis; format: ADME, cell-based; conditions: mda-mb-231, 24 h
HeLa [9] = assay: Cytotoxicity against human HeLa cells assessed as decrease in cell viability treated for 2 hrs measured after 48 hrs by MTT assay; format: functional, cell-based
MCF7 [10] = assay: Cytotoxicity against human MCF7 cells assessed as decrease in cell viability treated for 2 hrs measured after 48 hrs by MTT assay; format: functional, cell-based
[11] = Drug uptake in nucleus of human MDA-MB-231 cells at 5 uM after 2 hrs by fluorescence microscopic method; format: ADME
[12] = Drug uptake in human MDA-MB-231 cells at 5 uM after 2 hrs by flow cytometric analysis; format: ADME, cell-based; conditions: mda-mb-231, 2 h
[13] = Drug uptake in human HeLa cells at 5 uM after 2 hrs by flow cytometric analysis; format: ADME, cell-based
[14] = Drug uptake in nucleus of human HeLa cells at 5 uM after 2 hrs by fluorescence microscopic method; format: ADME, cell-based
[15] = Drug uptake in nucleus of human A549 cells at 5 uM after 2 hrs by fluorescence microscopic method; format: ADME, cell-based; conditions: a549, 2 h
[16] = Drug uptake in nucleus of human HeLa cells at 5 uM after 24 hrs by fluorescence microscopic method; format: ADME, cell-based
[17] = Drug uptake in nucleus of human MDA-MB-231 cells at 5 uM after 24 hrs by fluorescence microscopic method; format: ADME
[18] = Drug uptake in nucleus of human A549 cells at 5 uM after 24 hrs by fluorescence microscopic method; format: ADME, cell-based; conditions: a549, 24 h
[19] = Drug uptake in cytoplasm of human A549 cells at 5 uM after 2 hrs by fluorescence microscopic method; format: ADME, cell-based; conditions: a549, 2 h
[20] = Drug uptake in cytoplasm of human MDA-MB-231 cells at 5 uM after 2 hrs by fluorescence microscopic method; format: ADME
[21] = Drug uptake in cytoplasm of human HeLa cells at 5 uM after 2 hrs by fluorescence microscopic method; format: ADME, cell-based

## COc1cccc2c1C(=O)c1c(O)c3c(c(O)c1C2=O)C[C@@](O)(C(=O)CO)C[C@@H]3O[C@H]1C[C@H](NC(=O)CCC(=O)NCCCO[C@H]2CC[C@@]3(C)C(=CC[C@H]4[C@@H]5CC[C@H]([C@H](C)CCCC(C)C)[C@@]5(C)CC[C@@H]43)C2)[C@H](O)[C@H](C)O1
MDA-MB-231 [1]
  Activity: inactive
A549 [2]
  Activity: inactive
MCF7 [3]
  Activity: inactive
HeLa [4]
  Activity: inactive

## COc1cccc2c1C(=O)c1c(O)c3c(c(O)c1C2=O)C[C@@](O)(C(=O)COC(=O)CCC(=O)NCCCNC(=O)O[C@H]1CC[C@@]2(C)C(=CC[C@H]4[C@@H]5CC[C@H]([C@H](C)CCCC(C)C)[C@@]5(C)CC[C@@H]42)C1)C[C@@H]3O[C@H]1C[C@H](N)[C@H](O)[C@H](C)O1
MDA-MB-231 [1]
  Activity: Active
MDA-MB-231 [5]
  IC50: 16.4 µM
A549 [2]
  Activity: Active
A549 [6]
  IC50: 8.03 µM
MCF7 [3]
  Activity: Active
[7]
  Drug uptake: Not Active
[8]
  Drug uptake: Not Active
HeLa [9]
  IC50: 8.03 µM
MCF7 [10]
  IC50: 9.69 µM
HeLa [4]
  Activity: Active

## COc1cccc2c1C(=O)c1c(O)c3c(c(O)c1C2=O)C[C@@](O)(C(=O)CO)C[C@@H]3O[C@H]1C[C@H](N)[C@H](O)[C@H](C)O1 [DOXORUBICIN]
[11]
  Drug uptake: Active
[12]
  Drug uptake: Active
MDA-MB-231 [5]
  IC50: 14.7 µM
[13]
  Drug uptake: Active
[14]
  Drug uptake: Active
[15]
  Drug uptake: Active
A549 [6]
  IC50: 11.6 µM
[7]
  Drug uptake: Not Active
[8]
  Drug uptake: Not Active
HeLa [9]
  IC50: 7.18 µM
[16]
  Drug uptake: Not Active
MCF7 [10]
  IC50: 4.39 µM
[17]
  Drug uptake: Not Active
[18]
  Drug uptake: Not Active

## COc1cccc2c1C(=O)c1c(O)c3c(c(O)c1C2=O)C[C@@](O)(C(=O)COC(=O)CCC(=O)NCCCO[C@H]1CC[C@@]2(C)C(=CC[C@H]4[C@@H]5CC[C@H]([C@H](C)CCCC(C)C)[C@@]5(C)CC[C@@H]42)C1)C[C@@H]3O[C@H]1C[C@H](N)[C@H](O)[C@H](C)O1
[19]
  Drug uptake: Active
[20]
  Drug uptake: Active
MDA-MB-231 [1]
  Activity: Active
MDA-MB-231 [5]
  IC50: 21.6 µM
A549 [2]
  Activity: Active
A549 [6]
  IC50: 11.2 µM
MCF7 [3]
  Activity: Active
[7]
  Drug uptake: Active
[8]
  Drug uptake: Active
[21]
  Drug uptake: Active
HeLa [9]
  IC50: 27.9 µM
[16]
  Drug uptake: Active
MCF7 [10]
  IC50: 9.94 µM
[17]
  Drug uptake: Active
[18]
  Drug uptake: Active
HeLa [4]
  Activity: Active

## COc1cccc2c1C(=O)c1c(O)c3c(c(O)c1C2=O)C[C@@](O)(C(=O)CO)C[C@@H]3O[C@H]1C[C@H](NC(=O)CCC(=O)NCCCNC(=O)O[C@H]2CC[C@@]3(C)C(=CC[C@H]4[C@@H]5CC[C@H]([C@H](C)CCCC(C)C)[C@@]5(C)CC[C@@H]43)C2)[C@H](O)[C@H](C)O1
MDA-MB-231 [1]
  Activity: inactive
A549 [2]
  Activity: inactive
MCF7 [3]
  Activity: inactive
HeLa [4]
  Activity: inactive
